± gives the expanded uncertainty stated by the source.
Experiments:
[1] = refractive index (Na D-line) (dimensionless); settings: 101.3 kPa, Liquid, Standard Abbe refractometry
[2] = Boiling temperature at pressure P; settings: 101.3 kPa; Liquid; Ebulliometric method (Recirculating still)

Row | refractive index ([1]; 298.15 K) | Boiling temperature at pressure P [2] [°C] | refractive index ([1]; 301.15 K) | SMILES
1 | 1.43507 ± 0.00051 | 165.62 ± 0.12 |  | CC(=O)N(C)C [N,N-dimethylethanamide]
2 |  | 206.00 ± 0.12 | 1.42854 ± 0.00037 | CNC(C)=O [N-methylacetamide]
3 | 1.48829 ± 0.00037 | 152.29 ± 0.12 |  | CC(C)c1ccccc1 [isopropylbenzene]

From the NIST ThermoML archive (doi:10.1021/je800481n)
